US20220339178A1, “COMPOSITIONS AND METHODS FOR COGNITIVE PROTECTION OF POLLINATORS AGAINST PESTICIDES” (priority 2019, published 2022)

Legend:
[1] = system: Honey bee foragers (Apis mellifera scutellata); assay: Classical conditioning of PER in honey bees: rutin, kaempferol, p-coumaric acid vs fipronil; format: in vivo; conditions: for latency of response relative to Control bees: Dunnett's method; for learning score relative to Control bees: score 0-10, 1 μM rutin, 131 μM kaempferol, 200 μM p-coumaric acid or Mix twice a day for three days, 228 nM fipronil 10 μL three hours before training
Protocol: (§1) Honey bee foragers (Apis mellifera scutellata) were captured from established hives at the Apiary of the Universidad del Rosario (Bogota, Colombia) between 08:00 h and 10:00 h. Bees were ice-anesthetized and harnessed in plastic tubes and maintained under laboratory conditions for the duration of the experiment (five days). Food was provided twice a day in a volumen of 10 μL and varied in composition according to experimental treatments.
Bees were randomly allocated to one of the following treatments administered twice a day for three consecutive days (all concentrations are final):
Control: 1M sucrose water (10 μL)
Rut: 1 μM rutin (Sigma-Aldrich: R5143)-1M sugar water (10 μL)
Kaemp:131 μM kaempferol (Sigma-Aldrich:K0133)+1M sugar water (10 μL)
p-Cou A: 200 μM p-coumaric acid (Sigma-Aldrich:C9008) diluted in 1M sugar water (10 μL)
Mix: 1 μM rutin, 131 μM kaempferol and 200 μM p-Coumaric acid): Bees fed with composition diluted in 1M sugar water (10 μL) fed twice a day for three days
On the fourth day, bees were randomly assigned to one of two treatments three hours before training:
Fipronil: 10 μL of 228 nM Fipronil (Astuto Invesa) in 1M sucrose water
Sucrose solution: 10 μL 1M sucrose water
Thus, bees belong to one of ten treatments: Control, Kaemp, Rut, p-Cou A, Mix, Fipro, Kaemp+Fipro, Rut+Fipro, p-Cou A+Fipro, Mix+Fipro.
Bees were trained using classical conditioning of the proboscis extension response (PER). Briefly, bees received a soft current of clean air for 15 seconds to allow bees to accommodate. Then a soft current of 1-hexanol (Sigma-Aldrich: 471402) was injected for 10 seconds. Six seconds after injection of 1-hexanol, one of the antennae was stimulated with sugar water (1.5M), which leads to the reflexive extension of the proboscis, and the bee was allowed to drink for 4 seconds. Thus, the reward and the stimulus overlapped for four seconds. This sequence, recognized as a training trial, was repeated eleven times. Time was determined using a metronome (2 Hz). Memory retention was tested 24 hours after the eleven training trials. […] 12 bees were trained each session. Training was conducted by an experimenter blind to treatment.
(§2) Learning for each individual was quantified as the number of conditioned PER responses across the trials. Thus, for each bee a learning score between zero and ten (0-10) was recorded.
(§3) Multiple comparisons were then run comparing learning score relative to Control bees using a non-parametric one or two-tailed Steel Method depending upon predictions. These comparisons informed us about the predicted impairment produced by the insecticides, the predicted innocuous effect of the flavonoid and the potential level of protection. Error due to multiple comparisons was controlled using the False Discovery Rate method (FDR-two stage sharpened method). In all cases corrected p-values (q-values) are presented.
(§4) Memory retention was quantified as a nominal variable (yes/no). Data were compared across treatments using a Chi-square test, followed by multiple comparisons of all treatments vs. Control. Error due to multiple comparisons was controlled using the FDR as indicated above. In all cases corrected p-values (q values) are presented.
(§5) Latency was quantified as a continuous variable between 0.5 s and 10 s. Data were compared across treatments using an ANOVA following a Log transformation to normalize the distribution (Shapiro-Wilk W Test after log transformation: p>0.05 for all treatments for the null hypothesis that data is from a normal distribution), followed by multiple comparisons between all treatments and the Control group (Dunnett's method). Error due to multiple comparisons was controlled using the FDR method as indicated above. In all cases corrected p-values (q-values) are presented.

[2] = system: butyrylcholinesterase (BChE); conditions: literature report; cited from earlier work
[3] = system: AChE; conditions: literature report; cited from earlier work
[4] = system: Honey bee foragers (Apis mellifera scutellata); assay: Sucrose responsiveness (sensory sensitivity) of honey bees: flavonoids vs deltamethrin; format: in vivo; conditions: for sensitivity (sucrose responsiveness, total PER score) relative to Control bees: honey bees, rutin 1 μM, kaempferol 131.7 μM or both for one day, 17.81 μM deltamethrin next day, pooled score
Protocol: as §1, with “(three” for “(five”, “days).” for “days). Food was provided twice a day in a volumen of 10 μL and varied in composition according to experimental treatments.”
On the first day, bees were randomly allocated to one of four treatments administered as two doses (morning: 20 μL; afternoon:10 μL): i) Control (1M sucrose solution), ii) Rutin 1 μM (Sigma-Aldrich R5143), iii) Kaempferol 131.7 μM (Sigma-Aldrich K0133), iv) Rutin-Kaempferol composition (final concentration of […] rutin and 131.7 μM kaempferol). All solutions were diluted in 1M sucrose solution to the concentrations described above. The next day, bees from each group were randomly assigned to one of two treatments: […] of 1M sucrose solution or 17.81 μM deltamethrin (Dinastia Bayer). Thus, bees belonged to one of eight treatments: i) Sucrose water (Control), ii) Rutin (Rut), iii) Kaempferol (Kaemp), iv) Kaempferol+Rutin (Kaemp+Rut), v) Deltamethrin (Delta), vi) Rutin+Deltamethrin (Rut+Delta), vii) Kaempferol+Deltamethrin (Kaemp+Delta), viii) Kaempferol+Rutin+Deltamethrin ((Kaemp+Rut)+Delta). All solutions were diluted in 1M sugar water to the concentrations described above.
Sensory sensitivity was evaluated using responsiveness to sucrose, a proxy of resource exploitation by foragers. On the second day, bees of the eight treatments described above were tested five times for their response threshold (0 h, 1 h, 2 h, 3 h and 4 h). The first measure (0 h) was done prior to pesticide administration. Bees were tested with an ascending sucrose concentration of 0.1, 0.3, 1, 3, 10 and 30% (w/w). Between each concentration, the bees were presented with pure water as a control for potential sensitization or habituation (Pankiw et al., Behav Ecol Sociobiol (2000) 47:265-267). The inter-trial time between the presentation of each sucrose concentration was at least 4 minutes. For each presentation, the reflexive extension of the proboscis (tongue) of the bee, after antennal stimulation with the solution was recorded. After the last measure (4 h), bees were fed with 10 μL of 1M sucrose solution and maintained until the next day for a final test (24 hours after pesticide administration).
For each bee, a responsiveness score was determined (0-7) 0 h, 1 h, 2 h, 3 h, 4 h and 24 h, and a pooled scored (0-42). Normal distribution of the scores was tested using Shapiro-Wilk W Test for the null hypothesis that data is from a Normal distribution. […] Thus, non-parametric tests were used for comparisons across treatments and for multiple comparisons. Overall changes of responses across different concentrations were evaluated using repeated-measured MANOVA. Error associated with multiple comparisons was controlled using the Two-stage sharpened False Discovery Rate, and corrected p-values (q-values) are presented. Data were explored for outliers using a single run of Robust Fit outliers test. All analyses were conducted using JMP v.14 (SAS Institute Inc.)

[5] = system: bumblebee Bombus impatiens; assay: Olfactory conditioning of PER in bumblebees: self-administered rutin vs chronic fipronil; format: in vivo
Protocol: One colony of the bumblebee Bombus impatiens (Koppert Inc) was kept in laboratory conditions. Bees received pollen inside the nests and foraged to a 1M sugar-water feeder outside of the nest. Bees were collected while on the feeder and iced anesthetized to then be randomly assigned to one of four plastic containers where self-administration of one of two solutions was allowed to 10 bees out of two feeders (glass vials with 500 μL of solution each): i) 1 M sucrose water or ii) 1 μM Rutin (Sigma-Aldrich R5143) diluted in 1M sucrose water. Feeders were refilled each day for three days. On the night of the third day, one of the vials was replaced by a new one with one of two solutions: i) 1 M sucrose water or ii) 1M sucrose water+6 nM fipronil. Feeders were refilled each day for three more days, thus providing a chronic exposure to fipronil. On the night of the […] day, bees were iced anesthetized and yolked restrained in plastic pipettes. Thus, bees belonged to one of four treatments:
Control: self-administered sucrose water for six days
Rut: self-administered rutin for six days
Fipro: self-administered sucrose water for three days followed by three days of self-administered sucrose water (one feeder) and fipronil (one feeder).
Rut+Fipro: self-administered rutin for three days followed by three days of self-administered rutin (one feeder) and fipronil (one feeder).
(§6) All bees were blind-trained using olfactory conditioning of the proboscis extension response (PER). Briefly, bees were exposed to a presentation of 1-nonanol (Sigma-Aldrich) for 10 s. After 7 s of the onset of the odor presentation, the antenna was stimulated with 1.5 M sugar-water to elicit the PER. Following the PER, the bee was allowed to drink sugar-water for 3 s. Each paired presentation was considered a training trial and each individual received eleven training trials with an average intertrial interval of 10 minutes. After training, all bees were fed 20 μL of 1M sugar water and maintained in plastic boxes for 24 h until the retention test. […] Twenty-four hours after the last training trial the bees were presented with the conditioned odor for 10 s.
as §2
as §3, with “fipronil,” for “insecticides,”, “rutin” for “flavonoid”
as §4
Latency was quantified as a continuous variable between 0.5 s and 10 s. […]

[6] = system: bumblebee Bombus impatiens; assay: Olfactory conditioning of PER in bumblebees: ad libitum rutin vs acute imidacloprid or fipronil; format: in vivo
Protocol: One colony of the bumblebee Bombus impatiens (Koppert Inc) was kept in laboratory conditions. Bees received pollen inside the nests and foraged to a 1M sugar-water feeder outside of the nest. Bees were collected while on the feeder and iced anesthetized to then be randomly assigned to one of two plastic containers where ad libitum self-administration of one of two solutions was allowed to 10 bees: i) 1 M sucrose water or ii) 1 μM Rutin (Sigma-Aldrich R5143) diluted in 1M sucrose water. On the night of the third day, the feeder was removed to starve the bees. On the fourth day, the bees were iced anesthetized and yolked restrained in plastic pipettes. Bees were maintained in the pipettes for the rest of the experiment (two days). One hour after harnessing, the bees were randomly assigned to one of three treatments: i) 20 μL of 1M sucrose water, ii) 20 μL of 1M sucrose water+5 nM imidacloprid, iii) 20 μL of 1M sucrose water+6 nM fipronil. Thus, overall bees belonged to one of six treatments:
Control: ad libitum sucrose water for three days and 20 μL of sucrose water before training
Rutin: ad libitum 1 μM Rutin for three days and 20 μL of sucrose water before training
Imid: ad libitum sucrose water for three days and 20 μL of 5 nM Imidacloprid in 1M sugar water 2 hours before training
Rutin+Imid: ad libitum 1 μM Rutin for three days and 20 μL of 5 nM Imidacloprid in 1M sugar water 2 hours before training
Fipronil: ad libitum sucrose water for three days and 20 μL of 5 nM fipronil in 1M sucrose water 2 hours before training
Rutin+Fipronil: ad libitum […] Rutin for three days and 20 μL of 6 nM fipronil in 1M sugar water 2 hours before training
as §6, §2, §3, §4
as §5, with “group.” for “group (Dunnett's method).”, “In all cases corrected p-values (q-values) are presented.” left out

[7] = bumblebees, 24 h retention test

For `O=C(O)/C=C/c1ccc(O)cc1` [p-CouA, p-coumaric acid], the “latency of response relative to Control bees” value [1] was “not significantly different from Control” and the “learning score relative to Control bees” value ([1]; honey bees) was “not significantly different from Control bees”.
For `C=CC(C)(C)c1c2c(c(O)c3c(=O)c4ccc(O)c(O)c4oc13)C=CC(C)(C)O2` [macluraxanthone], the “inhibition of butyrylcholinesterase (BChE)” value [2] is given as “concentration-dependent inhibition ability” and the “inhibition of AChE” value [3] is given as “concentration-dependent inhibition ability”.
For `CC1(C)[C@H](C(=O)O[C@H](C#N)c2cccc(Oc3ccccc3)c2)[C@@H]1C=C(Br)Br` [Deltamethrin], the “sensitivity 24 h after administration of the insecticide relative to Control bees” value ([4]; 24 h) was “lowest sensitivity”, the “bees responding to 30% sucrose water” value ([4]; after 4 hours) was “less than 30%” and the “improvement in response to 30% sucrose water” value ([4]; after 24 hours) was 10%. The “bees responsive to 30% sucrose-water” value ([4]; after one hour) was “less than 40%” and the “sensitivity (sucrose responsiveness, total PER score) relative to Control bees” value [4] was “significantly lower”.
With `O=c1c(O)c(-c2ccc(O)cc2)oc2cc(O)cc(O)c12` [Kaemp, Kaempferol] the “latency of response relative to Control bees” value [1] was “not significantly different from Control”, the “learning score relative to Control bees” value ([1]; honey bees) was “not significantly different from Control bees” and the “sensitivity (sucrose responsiveness, total PER score) relative to Control bees” value [4] was “not significantly affected”.
With `N#Cc1nn(-c2c(Cl)cc(C(F)(F)F)cc2Cl)c(N)c1[S+]([O-])C(F)(F)F` (stereo not drawn) [Fipronil] the “odds of remembering for Control bees relative to Fipro bees” value ([5]; 24 h retention) was 8.7 times, the “proportion difference Control-Fipro for a PER response (Adjusted Wald test)” value ([5]; 24 h retention) was 0.48 and the “bees exhibiting a conditioned response after 24 h” value [5, 7] was 33.3%. For the same molecule, the “learning score relative to Control bees” value ([5]; bumblebees, score 0-10, self-administered 1 μM rutin six days, 6 nM fipronil feeder for the last three days (chronic)) was “significantly lower”, the “proportion difference Control minus treatment for a PER response (Adjusted Wald test)” value ([1]; 24 h retention) was 0.545 and the “bees exhibiting a conditioned response after 24 h” value ([1]; honey bees, 24 h retention test) was “None”. The “learning score relative to Control bees” value ([1]; honey bees) was “significantly lower”, the “odds of remembering for Control bees relative to insecticide bees” value ([6]; 24 h retention) was 3.4 times and the “proportion difference Control minus insecticide group for a PER response (Adjusted Wald test)” value ([6]; 24 h retention) was 0.30. The “decision-making ratio (latency of response / learning score) relative to Control bees” value ([6]; bumblebees) was “significant increase”, the “bees exhibiting a conditioned response after 24 h” value [6, 7] was 34.6% and the “learning score relative to Control bees” value ([6]; bumblebees, score 0-10, ad libitum 1 μM rutin three days, 5 nM imidacloprid or 6 nM fipronil 20 μL 2 hours before training) was “significantly lower”.
